Assay results from patent US6608082B1, “Treatment of erectile dysfunction using isoquinoline compound melanocortin receptor ligands” (Lion Bioscience AG, priority 1998, dated 2003).
Read-outs that look alike come from different tables or passages of the source.

How the values were obtained:
MCR-1 = target: T1, MCR-1 (Homo sapiens, UniProt Q01726); test: Melanocortin receptor binding assay, competition with 125I-HP 467, HEK 293 cells expressing hMCR-1; conditions: for IC50: read-out: MC-1 IC50; for % Disp. MC-1 10 μM: displacement of 125I-HP 467 at 10 μM isoquinoline compound
T1 construct: expressed in transfected cells; host or cells: HEK 293
Method in brief: (§1)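 Intact-cell competition binding, 2.5 hr at 37 °C, in PBS/10% calf serum/1 mM CaCl2; hMCR-4 cells at 4×10^3 per tube, hMCR-1 cells at 2×10^4 per tube. Filtration on BSA/CaCl2-soaked GF/B, cold 50 mM Tris pH 7.4 washes, scintillation count.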

MCR-4 = target: T2, MCR-4 (Homo sapiens, UniProt P32245); test: Melanocortin receptor binding assay, competition with 125I-HP 467, HEK 293 cells expressing hMCR-4; conditions: for IC50: read-out: MC-4 IC50
T2 construct: expressed in transfected cells; host or cells: HEK 293
Method in brief: as §1

[1] = inhibition of binding of 125I-HP 467, HEK 293 cells expressing MCR-1, TRG 2414 library
[2] = inhibition of binding of 125I-HP 467, HEK 293 cells expressing MCR-4, TRG 2414 library
[3] = competition with 125I-HP 467, HEK 293 cells expressing MCR-1
[4] = competition with 125I-HP 467, HEK 293 cells expressing MCR-4
[5] = TRG 2406 and TRG 2407 libraries, inhibition of binding of 125I-HP 467
[6] = TRG 2408 and TRG 2409 libraries, inhibition of 125I-HP 467 binding
[7] = inhibition of binding of 125I-HP 467, HEK 293 cells expressing MCR-1
[8] = inhibition of binding of 125I-HP 467, HEK 293 cells expressing MCR-4
[9] = TRG 2405 section, inhibition of binding of 125I-HP 467, HEK 293 cells expressing MCR-1
[10] = TRG 2405 section, inhibition of binding of 125I-HP 467, HEK 293 cells expressing MCR-4

T1 sequence (Q01726 whole entry): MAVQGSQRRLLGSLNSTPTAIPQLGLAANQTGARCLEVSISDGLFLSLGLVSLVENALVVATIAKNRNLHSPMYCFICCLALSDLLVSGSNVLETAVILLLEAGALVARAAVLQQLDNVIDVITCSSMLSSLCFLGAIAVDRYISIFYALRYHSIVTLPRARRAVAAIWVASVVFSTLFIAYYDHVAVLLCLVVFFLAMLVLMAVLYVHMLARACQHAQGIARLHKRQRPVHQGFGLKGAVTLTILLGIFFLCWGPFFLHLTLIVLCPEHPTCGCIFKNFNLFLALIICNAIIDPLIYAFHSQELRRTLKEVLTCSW
T2 sequence (P32245 whole entry): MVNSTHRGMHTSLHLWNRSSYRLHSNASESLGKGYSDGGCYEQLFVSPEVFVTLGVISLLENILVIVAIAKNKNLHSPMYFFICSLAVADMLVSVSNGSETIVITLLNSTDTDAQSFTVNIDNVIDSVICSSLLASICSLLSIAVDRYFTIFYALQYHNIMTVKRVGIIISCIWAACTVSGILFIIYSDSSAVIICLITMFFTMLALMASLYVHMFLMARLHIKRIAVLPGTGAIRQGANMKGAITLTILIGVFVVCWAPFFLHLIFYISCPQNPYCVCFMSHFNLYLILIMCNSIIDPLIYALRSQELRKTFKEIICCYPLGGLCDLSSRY

## CCOc1ccccc1CNCC1c2ccccc2CN(CCCCC(N)CN)C1c1ccc(Oc2ccccc2)cc1 (stereo not drawn) [TRG 2414-125]
MCR-1; [1]
  IC50: 700 nM
MCR-4; [2]
  IC50: 8080 nM

## CCNc1ccc(C2C(CNCCc3ccccc3)c3ccccc3CN2CCCCC(CN)NCc2ccc(OC)cc2)cc1 (stereo not drawn) [TRG 2411-45]
MCR-1; [3]
  IC50: 120 nM
MCR-4; [4]
  IC50: 840 nM

## CCn1c2ccccc2c2cc(C3C(CNCc4ccccc4O)c4ccccc4CN3CC(CN)NC)ccc21 (stereo not drawn) [TRG 2406-21]
MCR-1; [5]
  IC50: 6250 nM
MCR-4; [5]
  IC50: 1530 nM

## CCNc1ccc(C2C(CNC3CCCCC3)c3ccccc3CN2CCCCC(CN)NCCN)cc1 (stereo not drawn) [TRG 2408-33]
MCR-1; [6]
  IC50: 1060 nM
MCR-4; [6]
  IC50: 38700 nM

## CNC(CN)CCCCN1Cc2ccccc2C(CNCc2ccccc2O)C1c1cccc(Oc2ccccc2)c1 (stereo not drawn) [TRG 2406-10]
MCR-1; [5]
  IC50: 850 nM
MCR-4; [5]
  IC50: 260 nM

## CCNc1ccc(C2C(CNCCc3ccccc3)c3ccccc3CN2CCCCC(CN)NCCc2ccc3ccccc3c2)cc1 (stereo not drawn) [TRG 2411-46]
MCR-1; [3]
  IC50: 890 nM
MCR-4; [4]
  IC50: 1330 nM

## NCCNC(CN)CCCCN1Cc2ccccc2C(CNC2CCCCC2)C1c1ccc(Cl)cc1Cl (stereo not drawn) [TRG 2408-43]
MCR-1; [6]
  IC50: 1630 nM
MCR-4; [6]
  IC50: 7490 nM

## COc1ccc(CCNCC2c3ccccc3CN(CCCCC(CN)NCc3ccccc3)C2c2cccc(C(F)(F)F)c2)cc1 (stereo not drawn) [TRG 2421-43]
MCR-1; [7]
  IC50: 2150 nM
MCR-4; [8]
  IC50: 1760 nM

## CC(C)Cc1ccc(C(C)CNC(CN)CCCCN2Cc3ccccc3C(CNC3CCCCC3)C2c2ccc(Oc3ccccc3)cc2)cc1 (stereo not drawn) [TRG 2414-160]
MCR-1; [1]
  IC50: 17500 nM
MCR-4; [2]
  MC-4 IC50: no fit

## CCCCCc1ccc(C2C(CN)c3ccccc3CN2CCCC[C@@H](CN)NCC)cc1 (stereo partly drawn) [TRG 2415-20]
MCR-1; [7]
  IC50: 273 nM
MCR-4; [8]
  IC50: 4540 nM

## CNC(CN)CN1Cc2ccccc2C(CNC2CCCCC2)C1c1ccc(F)c(Br)c1 (stereo not drawn) [TRG 2405-126]
MCR-1; [9]
  IC50: 5340 nM
MCR-1; first of duplicate
  % Disp. MC-1 10 μM: 52.4%
MCR-1; second of duplicate
  % Disp. MC-1 10 μM: 58.4%
MCR-4; [10]
  IC50: 12800 nM

## CC(C)Cc1ccc(C(C)CNC(CN)CCCCN2Cc3ccccc3C(CNCCc3cccc(Cl)c3)C2c2ccc(Cl)cc2Cl)cc1 (stereo not drawn) [TRG 2414-16]
MCR-1; [1]
  MC-1 IC50: no fit
MCR-4; [2]
  IC50: 33400 nM

## CCOc1ccc(C2C(CN)c3ccccc3CN2CCCC(CN)NCCC2CCCCC2)cc1 (stereo not drawn) [TRG 2415-10]
MCR-1; [7]
  IC50: 460 nM
MCR-4; [8]
  IC50: 1760 nM

## CNC(CN)CN1Cc2ccccc2C(CNC2CCCCC2)C1c1ccccn1 (stereo not drawn) [TRG 2405-111]
MCR-1; [9]
  IC50: 7480 nM
MCR-1; first of duplicate
  % Disp. MC-1 10 μM: 57.2%
MCR-1; second of duplicate
  % Disp. MC-1 10 μM: 51%
MCR-4; [10]
  IC50: 17100 nM

## Cc1cccc(C2C(CNC3CCCCC3)c3ccccc3CN2CCN)c1 (stereo not drawn) [TRG 2405-47]
MCR-1; [9]
  IC50: 14300 nM
MCR-1; first of duplicate
  % Disp. MC-1 10 μM: 42.3%
MCR-1; second of duplicate
  % Disp. MC-1 10 μM: 45.8%
MCR-4; [10]
  IC50: 18900 nM

## NCC(N)CCCCN1Cc2ccccc2C(CNC2CCCCCC2)C1c1ccc(Oc2ccccc2)cc1 (stereo not drawn) [TRG 2414-153]
MCR-1; [1]
  IC50: 772 nM
MCR-4; [2]
  IC50: 4090 nM

## CCNc1ccc(C2C(CNc3cccc(Cl)c3)c3ccccc3CN2CCCCC(CN)NC)cc1 (stereo not drawn) [TRG 2407-45]
MCR-1; [5]
  IC50: 7910 nM
MCR-4; [5]
  IC50: 11000 nM

## CCNc1ccc(C2C(CNC3CCCCC3)c3ccccc3CN2CCCCC(N)CN)cc1 (mixture of isomers) [TRG 2408-31]
MCR-1; [6]
  IC50: 1270 nM
MCR-4; [6]
  IC50: 46500 nM

## CCCCNc1ccc(C2C(CN)c3ccccc3CN2CCCC(CN)NCCc2ccc(OC)cc2)cc1 (stereo not drawn) [TRG 2409-223]
MCR-1; [3]
  IC50: 100 nM
MCR-4; [4]
  IC50: 630 nM

## CCCOc1ccc(C2C(CN)c3ccccc3CN2CCCCC(CN)NCC)cc1 (stereo not drawn) [TRG 2415-17]
MCR-1; [7]
  IC50: 581 nM
MCR-4; [8]
  IC50: 9350 nM

## CCNc1ccc(C2C(CNC3CCCCC3)c3ccccc3CN2CCCC(N)CN)cc1 (stereo not drawn) [TRG 2408-61]
MCR-1; [6]
  IC50: 690 nM
MCR-4; [6]
  IC50: 35200 nM

## CCCOc1ccc(C2C(CN)c3ccccc3CN2CCCC(CN)NCCC2CCCCC2)cc1 (stereo not drawn) [TRG 2415-11]
MCR-1; [7]
  IC50: 441 nM
MCR-4; [8]
  IC50: 1520 nM

## CCNc1ccc(C2C(CNC3CCCCC3)c3ccccc3CN2CCCCC(CN)NCCc2ccc(Br)cc2)cc1 (stereo not drawn) [TRG 2411-52]
MCR-1; [3]
  IC50: 550 nM
MCR-4; [4]
  IC50: 860 nM

## CCn1c2ccccc2c2cc(C3C(CNCc4ccccc4O)c4ccccc4CN3CCCCC(CN)NC)ccc21 (stereo not drawn) [TRG 2406-22]
MCR-1; [5]
  IC50: 2120 nM
MCR-4; [5]
  IC50: 1790 nM

## CNCCNC(CN)CCCCN1Cc2ccccc2C(CNC2CCCCC2)C1c1ccc(-c2ccccc2)cc1 (mixture of isomers) [TRG 2408-24]
MCR-1; [6]
  IC50: 1940 nM
MCR-4; [6]
  IC50: 17100 nM

## CCNc1ccc(C2C(CNCCc3ccccc3)c3ccccc3CN2CCCC(CN)NCCCCNc2ccccc2)cc1 (stereo not drawn) [TRG 2419-1]
MCR-1; [7]
  IC50: 110 nM
MCR-4; [8]
  IC50: 3010 nM

## NCC(CCCN1Cc2ccccc2C(CN)C1c1ccc(-c2ccccc2)cc1)NCc1ccccc1 (stereo not drawn) [TRG 2411-149]
MCR-1; [3]
  IC50: 1170 nM
MCR-4; [4]
  IC50: 490 nM

## CCNc1ccc(C2C(CNCCc3ccccc3)c3ccccc3CN2CCCC(CN)NCCc2ccc(Br)cc2)cc1 (stereo not drawn) [TRG 2411-156]
MCR-1; [7]
  IC50: 120 nM
MCR-4; [8]
  IC50: 660 nM

## COc1cccc(CNCC2c3ccccc3CN(CCCCC(CN)NCC(C)c3ccc(CC(C)C)cc3)C2c2cc(C(F)(F)F)cc(C(F)(F)F)c2)c1 (stereo not drawn) [TRG 2414-60]
MCR-1; [1]
  MC-1 IC50: no fit
MCR-4; [2]
  IC50: 52600 nM

## COc1cccc(CNCC2c3ccccc3CN(CCCCC(CN)NCCc3ccccc3)C2c2ccccc2Br)c1 (stereo not drawn) [Cmpd 218]
MCR-1; TRG 2414 library, inhibition of binding of 125I-HP 467, HEK 293 cells expressing MCR-1
  IC50: 8200 nM
MCR-4; TRG 2414 library, inhibition of binding of 125I-HP 467, HEK 293 cells expressing MCR-4
  IC50: 10800 nM

## CCNc1ccc(C2C(CN(C)Cc3ccccc3)c3ccccc3CN2CCCCC(CN)NC)cc1 (stereo not drawn) [TRG 2407-51]
MCR-1; [5]
  IC50: 2160 nM
MCR-4; [5]
  IC50: 13500 nM

## CCCCNC(CN)CCCN1Cc2ccccc2C(CN)C1c1ccc(-c2ccccc2)cc1 (stereo not drawn) [TRG 2411-147]
MCR-1; [3]
  IC50: 1260 nM
MCR-4; [4]
  IC50: 1190 nM

## CCNc1ccc(C2C(CNC3CCCCC3)c3ccccc3CN2CCCCC(CN)NCCNC)cc1 (stereo not drawn) [TRG 2408-8]
MCR-1; [6]
  IC50: 2310 nM
MCR-4; [6]
  IC50: 43300 nM

## Cc1ccc(CNC(CN)CCCCN2Cc3ccccc3C(CNCCc3ccc(Cl)cc3)C2c2cc(C(F)(F)F)cc(C(F)(F)F)c2)cc1 (stereo not drawn) [TRG 2421-32]
MCR-1; [7]
  IC50: 5770 nM
MCR-4; [8]
  IC50: 4150 nM

## COc1ccc(CNCC2c3ccccc3CN(CCCCC(CN)NCc3ccccc3)C2c2ccc(Oc3ccccc3)cc2)cc1 (stereo not drawn) [TRG 2414-143]
MCR-1; [1]
  IC50: 2360 nM
MCR-4; [2]
  IC50: 14000 nM

## COc1ccccc1CCNCC1c2ccccc2CN(CCCCC(CN)NCCc2ccccc2)C1c1ccc(Oc2ccccc2)cc1 (stereo not drawn) [TRG 2414-130]
MCR-1; [1]
  IC50: 4630 nM
MCR-4; [2]
  IC50: 13400 nM

## COc1ccc(CNCC2c3ccccc3CN(CCCCC(CN)NCC(C)c3ccc(CC(C)C)cc3)C2c2cccc(Oc3ccccc3)c2)cc1 (stereo not drawn) [TRG 2414-104]
MCR-1; [1]
  MC-1 IC50: no fit
MCR-4; [2]
  IC50: 46200 nM

## CCNc1ccc(C2C(CNCCc3ccccc3)c3ccccc3CN2CCC[C@@H](CN)NCCCCOc2ccccc2)cc1 (stereo partly drawn) [2424#5]
MCR-1; [7]
  IC50: 50 nM
MCR-4; [8]
  IC50: 1510 nM

## COc1ccc(CNC(CN)CCCCN2Cc3ccccc3C(CNCCc3ccc(Oc4ccccc4)cc3)C2c2cc(C(F)(F)F)cc(C(F)(F)F)c2)cc1 (stereo not drawn) [TRG 2421-29]
MCR-1; [7]
  IC50: 5100 nM
MCR-4; [8]
  IC50: 7920 nM

## CCNc1ccc(C2C(CNCCc3ccccc3)c3ccccc3CN2CCCC(CN)NCCOCCNCc2ccccc2)cc1 (stereo not drawn) [TRG 2420-10]
MCR-1; [7]
  IC50: 55 nM
MCR-4; [8]
  IC50: 940 nM

## NCC(CCCCN1Cc2ccccc2C(CNCCc2ccc(O)cc2)C1c1cc(C(F)(F)F)cc(C(F)(F)F)c1)NCc1ccc(Br)cc1 (mixture of isomers) [TRG 2421-8]
MCR-1; [7]
  IC50: 5000 nM
MCR-4; [8]
  IC50: 5990 nM

## COc1ccc(CCNCC2c3ccccc3CN(CCCCC(CN)NCC(C)c3ccc(CC(C)C)cc3)C2c2cc(C(F)(F)F)cc(C(F)(F)F)c2)cc1 (stereo not drawn) [TRG 2414-68]
MCR-1; [1]
  MC-1 IC50: no fit
MCR-4; [2]
  IC50: 17700 nM
